This is an account of results in patent publication US6368814B1, “Tricyclic antidepressant derivatives and immunoassay” (Roche Diagnostics Corporation, priority 2000, dated 2002).

Assay [1] concerns Monoclonal Antibody TCA 1.1. The assay can be described thus: Competitive microplate ELISA of imipramine with monoclonal antibody TCA 1.1, wells coated with compound 11 conjugate. As to conditions: compound 11 coated wells, mAb TCA 1.1. The assay is classed as binding, mouse. The method, then: (§1) To analyze the sera for antibody content an ELISA assay using the cognate antigen linked to a different protein (2-carboxypropyl-dihydroamitriptyline-BSA) (compound 11) was used. This antigen was diluted to 5 μg/ml in 0.1 M carbonate buffer, pH 9.5. A volume of 100 μl of this antigen solution was pipetted into wells of a polystyrene 96-well microplate (Costar, Cambridge, Mass.). This was incubated in a plastic bag at 37° C. for 1 hour. The solutions were then removed via suction, and wells were filled with a blocking solution. This consisted of gelatine hydrolysate, 1%, sucrose, 2%, Tris, 0.15 M, pH 7.4 (all reagents from Sigma Chemicals). This was allowed to block the plates for 1 hour at room temperature in plastic bags. Wells were then emptied via suction.
(§2) Dilutions of the sera were prepared by transferring 1 μl to a glass test tube containing 1 ml of phosphate buffered saline, with 0.1% Tween 20 (PBS-T). One hundred and fifty microliters of this dilution of each serum were transferred to wells in Row A of a polyvinyl chloride microplate. All other wells were filled with 100 μl of PBS-T. Serial three-fold dilutions were prepared by transferring 50 μl from Row A to Row B using a multi-channel micropipettor. Mixing was accomplished by re-pipetting 3 times. This was repeated from Row B to C and so on down each column of wells.
(§3) Once all dilutions were prepared, 95 μl of each, starting with Row H, was transferred to the same row in the coated plate. The plate was placed in a Ziploc plastic bag with a damp piece of paper towel and incubated at 37° C. for one hour. Following incubation, the wells were washed four times manually with 300 μl aliquots of PBS-T. A 1:5000 dilution of goat anti-mouse IgG AM-HRP conjugate (Kirkegaard & Perry, Gaithersburg, Md.) was prepared in PBS-T. 100 μl of this was then pipetted into each well, the plate again incubated as above. The plate was then washed 6 times with 300 μl of PBS-T manually, and 100 μl of K-Blue substrate (Neogen, Lexington, Ky.) was added to each well. This was allowed to develop in the dark for 5 minutes, and the reaction was then stopped by the addition of 100 μl of a 2 M phosphoric acid solution. The optical densities of the wells were read using a Molecular Devices Tmax plate reader and a Macintosh computer.
(§4) Hybridoma clone TCA 1.1 was placed into high-density culture and supernatant harvested. This preparation was preserved by the addition of thimerosal to a concentration of 0.02%. Antibody content was evaluated by a titer experiment in which varying dilutions of supernatant were placed into microplate wells coated with a constant amount of antigen conjugate.
(§5) Incubation for 1 hour at 37° C. was followed by the same procedure as for the screening assays. Optical densities were plotted versus the final concentration of imipramine calculated as a molar (gram-molecular weight drug per liter) concentration.

In assay [2] the test system is Monoclonal Antibody TCA 1.1. The assay can be described thus: Competitive microplate ELISA of imipramine with monoclonal antibody TCA 1.1, wells coated with compound 27 conjugate. The assay is classed as binding, mouse. Particulars: compound 27 coated wells, mAb TCA 1.1. The method, then: as §1, §2, §3
This animal received a booster immunization of 100 μg of antigen in incomplete Freund's adjuvant four days before the fusion was performed. The myeloma cell line F0 (ATCC, Manassas, Va.) was used for the fusion. The fusion was performed by the method of de St Groth and Scheidegger, Journal of Immunol. Meth. 35, 1-21, 1980. Ten days later hybrid cell cultures were ready for screening.
as §4, §5

[3] abbreviates: imipramine final concentration 1.98 × 10^−6 molar.
Setting [4] is: imipramine final concentration 2.2 × 10^−7 molar.
Where [5] appears, read: imipramine final concentration 2.45 × 10^−8 molar.
[6] abbreviates: imipramine final concentration 6.6 × 10^−7 molar.
Setting [7] is: imipramine final concentration 7.43 × 10^−8 molar.
Where [8] appears, read: imipramine final concentration 8.15 × 10^−9 molar.

Consider `CN(C)CCCN1c2ccccc2CCc2ccccc21` [Imipramine, imipramine], for which the “OD450 compound 11” value in assay [1] (setting [3]) turned out to be 0.056; in assay [1] (setting [4]), 1.35; in assay [1] (setting [5]) it was 2.325; in assay [1] (setting [6]), 0.541; in assay [1] (setting [7]), 1.95; in assay [1] (setting [8]) it was 2.6. For the same molecule, the “OD450 compound 27” value was determined as 0.037 in assay [2] (setting [3]); 0.276 in assay [2] (setting [4]); 1.719 in assay [2] (setting [5]); 0.038 in assay [2] (setting [6]); 1.124 in assay [2] (setting [7]); 2.434 in assay [2] (setting [8]).
